Test results taken from article PMC9280334 (Frontiers in Chemistry, 2022).

How the values were obtained:
PC12 cells = assay: Neuroprotection against H2O2-induced cell death in PC12 cells (MTT); assay type: cell-based; conditions: H2O2 (150 μM)-induced injury, mean ± SEM
Method: The cell viability was measured using MTT [3-(4,5-dimethylthiazol-2-yl)-2,5-diphenyl tetrazolium bromide] assay ([Datki et al., 2003]). PC12 cells (from the Iranian Biological Resource Center, IBRC) received different treatments, including no treatment (control), 150 μM H2O2 alone, or 150 μM H2O2 in combination with 0.1–50 μM of the tested compound. The cells were seeded at 1 × 10^4 cells/well and incubated at 37 °C under a 5% CO2 atmosphere for 24 h, then treated with the tested compound and incubated for 3 h. Next, the cells were exposed to H2O2 for 2 h again. The MTT solution (20 μl, 5 mg/ml) was next replaced with the medium and incubated for 4 h. 100 μl of DMSO was added to dissolve the formazan precipitate. Absorbance was then measured at 570 nm using a multi-mode plate reader (Biotek, Winooski, VT). Cell viability is expressed as a percentage relative to the untreated control.

BuChE (equine serum) = target: T1, BuChE (equine serum) (Equus caballus, UniProt P81908); assay: biochemical; assay type: biochemical; conditions: equine serum BuChE; mean ± SEM of three experiments
T1 construct: purchased Sigma-Aldrich
T1 sequence (P81908 whole entry): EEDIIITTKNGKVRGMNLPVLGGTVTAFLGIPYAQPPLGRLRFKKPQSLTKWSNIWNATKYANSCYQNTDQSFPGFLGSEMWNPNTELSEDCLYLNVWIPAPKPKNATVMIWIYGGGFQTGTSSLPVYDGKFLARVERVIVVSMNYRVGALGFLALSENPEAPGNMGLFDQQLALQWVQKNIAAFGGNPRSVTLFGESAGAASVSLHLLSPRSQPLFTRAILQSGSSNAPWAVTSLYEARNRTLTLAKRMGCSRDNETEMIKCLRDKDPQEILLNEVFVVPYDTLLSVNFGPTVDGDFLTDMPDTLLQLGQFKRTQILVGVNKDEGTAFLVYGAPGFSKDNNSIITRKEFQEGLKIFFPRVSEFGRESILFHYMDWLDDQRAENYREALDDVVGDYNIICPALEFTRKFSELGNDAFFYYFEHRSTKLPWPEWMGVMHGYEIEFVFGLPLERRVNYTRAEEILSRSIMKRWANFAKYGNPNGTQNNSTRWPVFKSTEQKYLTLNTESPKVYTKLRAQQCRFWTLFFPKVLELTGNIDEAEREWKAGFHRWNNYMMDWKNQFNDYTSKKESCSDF
Method: (§1) AChE, BuChE, 5,5'-dithiobis (2-nitrobenzoic acid) (DTNB), acetyl- and butyrylthiocholine iodides were purchased from Sigma-Aldrich. Five different concentrations of the corresponding compounds in ethanol-DMSO (9:1) were prepared. […] After 3 min of incubation, the substrate solution (acetylthiocholine iodide or butyrylthiocholine iodide, 0.05 M) was added and then incubated for at least 1 min at 25°C. […] The inhibition curve was obtained by plotting the percentage of enzyme activity (100% for the reference) versus the logarithm of the tested compound concentration. […]

AChE (electric eel) = target: T2, AChE (electric eel) (Electrophorus electricus, UniProt O42275); assay: biochemical; assay type: biochemical; conditions: electric eel AChE; mean ± SEM of three experiments
T2 construct: purchased Sigma-Aldrich
T2 sequence (O42275 24-633): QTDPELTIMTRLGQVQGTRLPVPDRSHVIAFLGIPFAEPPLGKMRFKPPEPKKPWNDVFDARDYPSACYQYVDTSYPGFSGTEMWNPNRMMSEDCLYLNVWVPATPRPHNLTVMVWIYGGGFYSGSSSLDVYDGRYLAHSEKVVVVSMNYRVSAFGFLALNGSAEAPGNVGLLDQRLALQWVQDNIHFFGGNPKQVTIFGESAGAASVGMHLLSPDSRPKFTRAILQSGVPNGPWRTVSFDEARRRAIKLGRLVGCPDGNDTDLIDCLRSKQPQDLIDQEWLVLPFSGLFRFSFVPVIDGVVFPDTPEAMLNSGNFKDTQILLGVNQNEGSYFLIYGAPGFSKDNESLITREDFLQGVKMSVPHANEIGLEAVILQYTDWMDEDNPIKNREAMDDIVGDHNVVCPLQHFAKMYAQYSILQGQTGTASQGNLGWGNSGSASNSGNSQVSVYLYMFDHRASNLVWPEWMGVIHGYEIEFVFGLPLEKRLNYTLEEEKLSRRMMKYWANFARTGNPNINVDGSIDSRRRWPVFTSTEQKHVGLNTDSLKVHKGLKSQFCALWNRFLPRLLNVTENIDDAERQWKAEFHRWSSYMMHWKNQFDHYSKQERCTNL
Method: as §1

Aβ1-42 = target: T3, Aβ1-42 (Homo sapiens, UniProt P05067); assay: Inhibition of self-induced Aβ1-42 aggregation (ThT assay); assay type: biochemical; conditions: Aβ1-42 20 μM, compound 100 μM, after 48 h, ThT, mean ± SEM of three experiments
T3 construct: Amyloid-β protein 1–42 (Sigma A9810) was dissolved; purchased Sigma A9810
T3 sequence (P05067 672-713 limits assumed): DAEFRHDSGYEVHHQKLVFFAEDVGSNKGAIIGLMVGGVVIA
Method: Inhibitory properties of the compounds on self-induced and AChE-induced aggregation of amyloid-β protein 1–42 was determined using a thioflavin T (ThT)-based fluorescence assay with slight modifications ([Levine, 1993]). The ThT excitation/emission was measured at 448 nm/490 nm at 48 h using a SpectraMax® Microplate Reader. Amyloid-β protein 1–42 (Sigma A9810) was dissolved in Phosphate Buffer Saline pH 7.4 (PBS, HyClone Thermo Scientific) containing ammonium hydroxide (1%). Aβ1-42 (50 μM) was incubated for 24 h at 37°C for prefibrillation.
To determine AChE-induced Aβ1-42 aggregation, Aβ1-42 (20 μl) ± human recombinant AChE (0.01 u/ml, Sigma C1682) were added to […] of PBS buffer pH 7.4 including 0.15 M NaCl and 20 μM thioflavin T (ThT). The mixture was incubated at 37°C in the absence and presence of the compounds (100 μM) and the fluorescence intensities were determined. Due to the presence of the tested compounds, inhibition of self- or AChE-induced aggregation percent was determined by the following calculation: [100-((IFi/IFo) × 100)] where IFi and IFo are the fluorescence intensities obtained for Aβ ± AChE in the presence and in the absence of inhibitors.

SMILES	PC12 cell viability (% of control) (PC12 cells; 0.1 μM compound)	PC12 cell viability (% of control) (PC12 cells; 1 μM compound)	PC12 cell viability (% of control) (PC12 cells; 5 μM compound)	PC12 cell viability (% of control) (PC12 cells; 10 μM compound)	PC12 cell viability (% of control) (PC12 cells; 20 μM compound)	PC12 cell viability (% of control) (PC12 cells; 50 μM compound)	IC50 (BuChE (equine serum)) [nM]	IC50 (AChE (electric eel)) [nM]	Inhibition of self-induced Aβ aggregation (Aβ1-42) [%]
O=c1c(O)c(-c2ccc(O)c(O)c2)oc2cc(O)cc(O)c12 [Quercetin, reference compound]	37.7 ± 1.2 % of control	44.2 ± 0.7 % of control	50.7 ± 0.1 % of control	55.8 ± 0.3 % of control	59.6 ± 0.8 % of control	61.0 ± 0.8 % of control			
CCc1ccc(C)[n+](CCCCCOc2ccc(-c3cc4cc(Br)ccc4oc3=O)cc2)c1 [Compound 3q, 1-(5-(4-(6-Bromo-2-oxo-2H-chromen-3-yl)phenoxy)pentyl)-5-ethyl-2-methylpyridin-1-ium Bromide]							22 ± 2.3	19 ± 1.6	
O=c1oc2ccccc2cc1-c1ccc(OCCCC[n+]2ccccc2)cc1.[Br-] [Compound 3g, 1-(4-(4-(2-Oxo-2H-chromen-3-yl)phenoxy)butyl)pyridinium Bromide]	30.2 ± 1.4 % of control	33.6 ± 1.2 % of control	36.6 ± 0.9 % of control	45.8 ± 0.3 % of control	48.7 ± 0.9 % of control	49.9 ± 0.9 % of control	91 ± 18	7 ± 1	
O=c1oc2ccc(Br)cc2cc1-c1ccc(OCCCCC[n+]2ccccc2)cc1 [Compound 3p, 1-(5-(4-(6-Bromo-2-oxo-2H-chromen-3-yl)phenoxy)pentyl)pyridinium Bromide]							49 ± 5	3	
O=c1oc2ccc(Br)cc2cc1-c1ccc(OCCC[n+]2ccccc2)cc1 [Compound 3e, 1-(3-(4-(6-Bromo-2-oxo-2H-chromen-3-yl)phenoxy)propyl)pyridinium Bromide]							33 ± 5	15 ± 3	
O=c1oc2ccccc2cc1-c1ccc(OCCCCC[n+]2ccccc2)cc1 [Compound 3m, 1-(5-(4-(2-Oxo-2H-chromen-3-yl)phenoxy)pentyl)pyridinium Bromide]							86 ± 10	72 ± 8	
COc1cccc2cc(-c3ccc(OCCCC[n+]4ccccc4)cc3)c(=O)oc12 [Compound 3j, 1-(4-(4-(8-Methoxy-2-oxo-2H-chromen-3-yl)phenoxy)butyl)pyridinium Bromide]							97 ± 19	31 ± 5	
O=c1oc2ccc([N+](=O)[O-])cc2cc1-c1ccc(OCCCCC[n+]2ccccc2)cc1 [Compound 3o, 1-(5-(4-(6-Nitro-2-oxo-2H-chromen-3-yl)phenoxy)pentyl)pyridinium Bromide]							27 ± 2	22 ± 4	
O=c1oc2ccc(Br)cc2cc1-c1ccc(OCCCC[n+]2ccccc2)cc1 [Compound 3k, 1-(4-(4-(6-Bromo-2-oxo-2H-chromen-3-yl)phenoxy)butyl)pyridinium Bromide]							92 ± 9	40 ± 5	
COc1cccc2cc(-c3ccc(OCCC[n+]4ccccc4)cc3)c(=O)oc12 [Compound 3d, 1-(3-(4-(8-Methoxy-2-oxo-2H-chromen-3-yl)phenoxy)propyl)pyridinium Bromide]							79 ± 9	81 ± 4	
COc1ccc2cc(-c3ccc(OCCCC[n+]4ccccc4)cc3)c(=O)oc2c1 [Compound 3i, 1-(4-(4-(7-Methoxy-2-oxo-2H-chromen-3-yl)phenoxy)butyl)pyridinium Bromide]							46 ± 1	144 ± 9	
COc1cc2c(cc1OC)C(=O)C(CC1CCN(Cc3ccccc3)CC1)C2 (stereo not drawn) [Donepezil, reference compound]									30.8 ± 1.7
COc1ccc2cc(-c3ccc(OCCC[n+]4ccccc4)cc3)c(=O)oc2c1 [Compound 3c, 1-(3-(4-(7-Methoxy-2-oxo-2H-chromen-3-yl)phenoxy)propyl)pyridinium Bromide]							57 ± 10	7 ± 1	
COc1ccc2oc(=O)c(-c3ccc(OCCC[n+]4ccccc4)cc3)cc2c1.[Br-] [Compound 3b, 1-(3-(4-(6-Methoxy-2-oxo-2H-chromen-3-yl)phenoxy)propyl)pyridinium Bromide]	31.7 ± 1.4 % of control	37.6 ± 1.1 % of control	43.3 ± 0.9 % of control	45.4 ± 1.3 % of control	49.6 ± 0.9 % of control	54.3 ± 1.6 % of control	68 ± 6	4 ± 1	
COc1ccc2oc(=O)c(-c3ccc(OCCCC[n+]4ccccc4)cc3)cc2c1 [Compound 3h, 1-(4-(4-(6-Methoxy-2-oxo-2H-chromen-3-yl)phenoxy)butyl)pyridinium Bromide]							106 ± 8	1000 ± 37	
O=c1oc2ccc([N+](=O)[O-])cc2cc1-c1ccc(OCCCC[n+]2ccccc2)cc1.[Br-] [Compound 3l, 1-(4-(4-(6-Nitro-2-oxo-2H-chromen-3-yl)phenoxy)butyl)pyridinium Bromide]	23.7 ± 0.5 % of control	27.3 ± 1.2 % of control	33.5 ± 1.2 % of control	37.8 ± 1.0 % of control	51.6 ± 1.1 % of control	55.7 ± 2.0 % of control	59 ± 11	3 ± 1	
COc1cccc2cc(-c3ccc(OCCCCC[n+]4ccccc4)cc3)c(=O)oc12 [Compound 3n, 1-(5-(4-(8-Methoxy-2-oxo-2H-chromen-3-yl)phenoxy)pentyl)pyridinium Bromide]							123 ± 24	15 ± 2	
CN(C)c1cc[n+](CCCOc2ccc(-c3cc4ccccc4oc3=O)cc2)cc1 [Compound 3s, 4-(Dimethylamino)-1-(3-(4-(2-oxo-2H-chromen-3-yl)phenoxy)propyl)pyridin-1-ium Bromide]							34 ± 2.6	22 ± 1.9	
